Tested on: KRAS PDC tumor spheroids (HUVEC+MSC), viability
Assay: Anticancer human tumor 254851-301-R-J1-PDC patient-derived colon carcinoma cell line growth inhibition [KRAS2]
Conditions: for IC50: curve of first compound; for viability, T/C: stronger effect = lower value
Text: Multicellular complex tumor spheroid response to RAS pathway inhibitors in combination with a targeted agents in patient-derived cell lines with oncogenic KRAS variants from multiple cancer types
A high-throughput screen of multi-cell type tumor spheroids was designed to identify active combinations of targeted small molecules and KRAS pathway inhibitors. Complex spheroids include a stromal component modeled by human endothelial cells (HUVEC) and fibroblasts modeled by human mesenchymal stem cells (MSCs). The concentration ranges selected for each drug and investigational agent were based upon clinically achievable concentrations if the clinical Cmax of the agent was known.
Compounds. The drugs and investigational agents: BI-3406 (NSC825286), BAY-293 (NSC824723), batoprotafib (TNO155; NSC825523), sotorasib (AMG 510; NSC818433), MRTX1257 (NSC819558), elimusertib (BAY 1895344; NSC800525), molibresib (GSK525762; NSC774829), temuterkib (LY3214996; NSC803410), venetoclax (NSC766270), alisertib (NSC759677), olaparib (NSC753686), talazoparib (NSC767125), erdafitinib (NSC781556), ipatasertib (NSC767898), cabozantinib (NSC761068), nintedanib (NSC756659), abemaciclib (NSC768073), docetaxel (NSC628503), trametinib (NSC758246), and sapanisertib (NSC764658) were obtained from the National Cancer Institute (NCI) Developmental Therapeutics Program Chemical Repository. The FDA-approved anticancer drug set is available from the Developmental Therapeutics Program. […] The stock solutions were prepared in dimethyl sulfoxide (DMSO, Sigma-Aldrich, St. Louis, MO, cat. D2650) at 800-fold the tested concentration and stored at -70 degrees C prior to their use. All drugs and investigational agents were tested over a range starting from a high concentration at or near the clinical Cmax and decreasing in half-log increments. If the clinical Cmax for an agent had not been determined, the highest concentration tested was 10 microM.
Cell Culture. All cells were maintained in an incubator at 37 degrees C and 5% CO2 with 95% humidity. The PDC lines were cultured according to standard operating procedures established by the NCI PDMR (https://pdmr.cancer.gov/sops/default.htm). Briefly, all PDCs were thawed and cultured in Matrigel-coated flasks prepared with a working solution of 1X Ham's F-12 nutrient mix, without supplementation (Invitrogen, Waltham, MA, cat. 11765054), 100 U/mL penicillin-streptomycin (Invitrogen, cat. 15140122), and 2.5% Matrigel (Corning Inc., Corning, NY, cat. 354248) for the first three passages. All PDCs were cultured in complete DMEM/F-12 media containing advanced DMEM/F-12 (Invitrogen, cat. 12634028), 4.9% defined fetal bovine serum, heat inactivated (HyClone Laboratories Inc., Logan, UT, cat. SH30070.03HI), 389 ng/mL hydrocortisone (Sigma-Aldrich, cat. H4001), 9.7 ng/mL human EGF recombinant protein (Invitrogen, cat. PHG0313), 23.4 microg/mL adenine (Sigma-Aldrich, cat. A2786), 97.3 U/mL penicillin-streptomycin (Invitrogen, cat. 15140122), 1.9 mM L-glutamine (Invitrogen, cat. 25030081), and 9.7 microM Y-27632 dihydrochloride (Tocris Bioscience, Bristol, United Kingdom, cat. 1254). The PDCs were cultured in complete DMEM/F12 media without 9.7 microM Y-27632 dihydrochloride for at least two passages prior to the screen. The established cell line HOP-62 was cultured in RPMI 1640 medium, HEPES (Invitrogen, cat. 22400105) with 10% defined fetal bovine serum (HyClone Laboratories Inc., cat. SH30070.03) and 2 mM L-glutamine (Invitrogen, cat. 25030081). The pooled donor HUVEC were cultured in endothelial cell growth medium 2 (PromoCell, Heidelberg, Germany, cat. C-22011) and the hMSC were cultured in mesenchymal stem cell growth medium 2 (PromoCell, cat. C-28009). For all experiments, HUVEC and hMSC were used at passages </=5, while the malignant cell lines were used at passages </=15. […]

[1] = second compound 0.1 µM, first compound 0.000316 µM
[2] = second compound 0.1 µM, first compound 0.001 µM
[3] = second compound 0.1 µM, first compound 0.00316 µM
[4] = second compound 0.1 µM, first compound 0.01 µM
[5] = second compound 0.1 µM, first compound 0.0316 µM
[6] = second compound 0.1 µM, first compound 0.1 µM
[7] = second compound 0.316 µM, first compound 0.000316 µM
[8] = second compound 0.316 µM, first compound 0.001 µM
[9] = second compound 0.316 µM, first compound 0.00316 µM
[10] = second compound 0.316 µM, first compound 0.01 µM
[11] = second compound 0.316 µM, first compound 0.0316 µM
[12] = second compound 0.316 µM, first compound 0.1 µM
[13] = second compound 1 µM, first compound 0.000316 µM
[14] = second compound 1 µM, first compound 0.001 µM
[15] = second compound 1 µM, first compound 0.00316 µM
[16] = second compound 1 µM, first compound 0.01 µM
[17] = second compound 1 µM, first compound 0.0316 µM
[18] = second compound 1 µM, first compound 0.1 µM
[19] = second compound 3.16 µM, first compound 0.000316 µM
[20] = second compound 3.16 µM, first compound 0.001 µM
[21] = second compound 3.16 µM, first compound 0.00316 µM
[22] = second compound 3.16 µM, first compound 0.01 µM
[23] = second compound 3.16 µM, first compound 0.0316 µM
[24] = second compound 3.16 µM, first compound 0.1 µM
[25] = second compound 10 µM, first compound 0.000316 µM
[26] = second compound 10 µM, first compound 0.001 µM
[27] = second compound 10 µM, first compound 0.00316 µM
[28] = second compound 10 µM, first compound 0.01 µM
[29] = second compound 10 µM, first compound 0.0316 µM
[30] = second compound 10 µM, first compound 0.1 µM
[31] = second compound 0.1 µM, first compound 0.316 µM
[32] = second compound 0.1 µM, first compound 1 µM
[33] = second compound 0.1 µM, first compound 3.16 µM
[34] = second compound 0.1 µM, first compound 10 µM
[35] = second compound 0.316 µM, first compound 0.316 µM
[36] = second compound 0.316 µM, first compound 1 µM
[37] = second compound 0.316 µM, first compound 3.16 µM
[38] = second compound 0.316 µM, first compound 10 µM
[39] = second compound 1 µM, first compound 0.316 µM
[40] = second compound 1 µM, first compound 1 µM
[41] = second compound 1 µM, first compound 3.16 µM
[42] = second compound 1 µM, first compound 10 µM
[43] = second compound 3.16 µM, first compound 0.316 µM
[44] = second compound 3.16 µM, first compound 1 µM
[45] = second compound 3.16 µM, first compound 3.16 µM
[46] = second compound 3.16 µM, first compound 10 µM
[47] = second compound 10 µM, first compound 0.316 µM
[48] = second compound 10 µM, first compound 1 µM
[49] = second compound 10 µM, first compound 3.16 µM
[50] = second compound 10 µM, first compound 10 µM
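Further: spheroids exposed to compounds for seven days before readout.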
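Wherever viability, T/C is given: 100% = DMSO vehicle control luminescence of the spheroids.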

Row | Structure (SMILES) | IC50 (second compound 0.1 µM) [nM] | IC50 (second compound 0.316 µM) [nM] | IC50 (second compound 1 µM) [nM] | IC50 (second compound 3.16 µM) [nM] | IC50 (second compound 10 µM) [nM] | viability, T/C [1] [%] | viability, T/C [2] [%] | viability, T/C [3] [%] | viability, T/C [4] [%] | viability, T/C [5] [%] | viability, T/C [6] [%] | viability, T/C [7] [%] | viability, T/C [11] [%] | viability, T/C [12] [%] | viability, T/C [17] [%] | viability, T/C [18] [%] | viability, T/C [23] [%] | viability, T/C [24] [%] | viability, T/C [29] [%] | viability, T/C [30] [%] | other results
1 | CC(C)n1nc(-c2ccc3oc(N)nc3c2)c2c(N)ncnc21 + C=CC(=O)N1CCN(c2nc(=O)n(-c3c(C)ccnc3C(C)C)c3nc(-c4c(O)cccc4F)c(F)cc23)C(C)C1 | 19.1 | 21.6 | 13.3 | 20.1 | 18.1 | 107 | 110 | 92.8 | 72.8 | 32.3 | 19.8 | 105 | 39.8 | 23.1 | 34.3 | 21.9 | 34.7 | 22.8 | 35.1 | 24 | viability, T/C [8]: 104%; viability, T/C [9]: 97.7%; viability, T/C [10]: 71.2%; viability, T/C [13]: 116%; viability, T/C [14]: 113%; viability, T/C [15]: 102%; viability, T/C [16]: 54.7%; viability, T/C [19]: 103%; viability, T/C [20]: 117%; viability, T/C [21]: 89.7%; viability, T/C [22]: 73.5%; viability, T/C [25]: 98.9%; viability, T/C [26]: 109%; viability, T/C [27]: 88.5%; viability, T/C [28]: 66.4%
2 | CC1(C)CCC(CN2CCN(c3ccc(C(=O)NS(=O)(=O)c4ccc(NCC5CCOCC5)c([N+](=O)[O-])c4)c(Oc4cnc5[nH]ccc5c4)c3)CC2)=C(c2ccc(Cl)cc2)C1 + C=CC(=O)N1CCN(c2nc(=O)n(-c3c(C)ccnc3C(C)C)c3nc(-c4c(O)cccc4F)c(F)cc23)C(C)C1 | > 10000 | > 10000 | > 10000 | > 10000 | > 10000 |  |  |  |  | 106 | 112 |  | 106 | 115 | 114 | 115 | 102 | 119 | 109 | 109 | viability, T/C [31]: 98.2%; viability, T/C [32]: 95.4%; viability, T/C [33]: 95.3%; viability, T/C [34]: 73.6%; viability, T/C [35]: 91.2%; viability, T/C [36]: 95.1%; viability, T/C [37]: 91.3%; viability, T/C [38]: 91.6%; viability, T/C [39]: 105%; viability, T/C [40]: 104%; viability, T/C [41]: 93.8%; viability, T/C [42]: 74.3%; viability, T/C [43]: 102%; viability, T/C [44]: 103%; viability, T/C [45]: 92.7%; viability, T/C [46]: 84.9%; viability, T/C [47]: 97.8%; viability, T/C [48]: 107%; viability, T/C [49]: 93.8%; viability, T/C [50]: 83.7%
3 | COc1cc2nccc(Oc3ccc(NC(=O)C4(C(=O)Nc5ccc(F)cc5)CC4)cc3)c2cc1OC + C=CC(=O)N1CCN(c2nc(=O)n(-c3c(C)ccnc3C(C)C)c3nc(-c4c(O)cccc4F)c(F)cc23)C(C)C1 | > 10000 | > 10000 | > 10000 | > 10000 | > 10000 |  |  |  |  | 108 | 102 |  | 104 | 107 | 109 | 115 | 114 | 112 | 131 | 115 | viability, T/C [31]: 99.3%; viability, T/C [32]: 110%; viability, T/C [33]: 104%; viability, T/C [34]: 65.9%; viability, T/C [35]: 113%; viability, T/C [36]: 110%; viability, T/C [37]: 99.4%; viability, T/C [38]: 57.4%; viability, T/C [39]: 113%; viability, T/C [40]: 103%; viability, T/C [41]: 104%; viability, T/C [42]: 74.8%; viability, T/C [43]: 111%; viability, T/C [44]: 117%; viability, T/C [45]: 108%; viability, T/C [46]: 72.1%; viability, T/C [47]: 111%; viability, T/C [48]: 112%; viability, T/C [49]: 90.8%; viability, T/C [50]: 62.6%
4 | Cn1ncnc1[C@H]1c2n[nH]c(=O)c3cc(F)cc(c23)N[C@@H]1c1ccc(F)cc1 + C=CC(=O)N1CCN(c2nc(=O)n(-c3c(C)ccnc3C(C)C)c3nc(-c4c(O)cccc4F)c(F)cc23)C(C)C1 | > 100 | > 100 | > 100 | > 100 | > 100 | 101 | 99.8 | 99.2 | 99.3 | 106 | 98.8 | 97.5 | 88.5 | 92.4 | 97.7 | 86.5 | 96.3 | 90.4 | 87.4 | 96.8 | viability, T/C [8]: 97.9%; viability, T/C [9]: 96%; viability, T/C [10]: 94.5%; viability, T/C [13]: 90%; viability, T/C [14]: 93.9%; viability, T/C [15]: 98%; viability, T/C [16]: 94.7%; viability, T/C [19]: 97%; viability, T/C [20]: 103%; viability, T/C [21]: 94%; viability, T/C [22]: 94.3%; viability, T/C [25]: 108%; viability, T/C [26]: 99.4%; viability, T/C [27]: 102%; viability, T/C [28]: 91.7%

Source: PubChem BioAssay AID1963868 (Molecular Pharmacology Branch, DTP, NCI, 2024)
